Legend:
[1] = U.S. Pat. No. 5,731,347; Phase 2 clinical study; cited from earlier work
[2] = test system: viruses; conditions: cited from earlier work
[3] = test system: viruses; type: cell-based
[4] = Gargle and nasal spray with ClO2 solution in people with sore throat, cold or sinusitis; conditions: in vivo
[5] = test system: flu viruses; conditions: cited from earlier work
[6] = test system: most microorganisms, including gram negative bacteria, fungal spores, and viruses; type: cell-based

Row | Compound | therapy for canker sores in the mouth [1] | inactivation of all viruses tested [2] | deactivation of all viruses [3] | inflammation and discomfort noted by users [4] | toxicity or irritation to the mucus membranes [4] | kill of all flu viruses [5] | time to kill most microorganisms [6]
1 | CC(O)C(=O)O (stereo not shown) [lactic acid] | excellent therapy | – | – | – | – | – | –
2 | chlorine dioxide | – | inactivated within a minute | deactivated in seconds | near-immediate reductions | non toxic or non-irritating | in a few seconds | about one

Source: patent US10201563B2, “Method of treating sinusitis, including chronic sinusitis” (SINOX PHARMA, INC., priority 2010, dated 2019)
